Values joined by “and” are separate entries in the source; they are usually repeats but may differ in a detail not shown here. Identical values can stand only once.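 Five compound concentrations were applied to cells in 96-well plates for 48 hours; endpoints were derived by simple linear interpolation of the resulting dose-response curve. GI50 marks 50% less growth. TGI: total growth inhibition.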
What was measured:
Assay in all cases: DTP human tumour cell line panel, 48 h
SW-620 colon = test system: SW-620 colon
A498 renal = test system: A498 renal
MOLT-4 leukemia = test system: MOLT-4 leukemia
RXF 393 renal = test system: RXF 393 renal
LOX IMVI melanoma = test system: LOX IMVI melanoma
NCI-H460 lung = test system: NCI-H460 lung
UO-31 renal = test system: UO-31 renal
NCI-H23 lung = test system: NCI-H23 lung
SF-268 CNS = test system: SF-268 CNS
K-562 leukemia = test system: K-562 leukemia

SMILES	TGI (SW-620 colon)	TGI (A498 renal)	TGI (MOLT-4 leukemia) [µM]	TGI (RXF 393 renal)	TGI (LOX IMVI melanoma)	TGI (NCI-H460 lung)	TGI (UO-31 renal)	TGI (NCI-H23 lung)	TGI (SF-268 CNS)	TGI (K-562 leukemia)	GI50 (SW-620 colon)	GI50 (A498 renal)	GI50 (MOLT-4 leukemia)	GI50 (LOX IMVI melanoma)	GI50 (NCI-H460 lung)	GI50 (K-562 leukemia)	GI50 (RXF 393 renal)	GI50 (UO-31 renal)	GI50 (NCI-H23 lung)	GI50 (SF-268 CNS)
CSc1ncnc2c1ncn2C1OC(CO)C(O)OC1O (centres undefined)	> 100 µM	> 53.1 µM	30.1	38 µM	15.4 µM	16 µM	31.2 µM	> 44 µM	> 100 µM	59.8 µM	–	–	–	–	–	–	–	–	–	–
S=C(N/N=C(/c1ccccc1)c1ccccn1)N1CCCCCC1	1.43 µM and 1.68 µM	0.775 µM and 1.84 µM	0.00191	1.63 µM and 2.32 µM	1.79 µM and 1.27 µM	1.58 µM and 1.89 µM	1.75 µM	2.11 µM	1.96 µM and 2.87 µM	0.0117 µM	< 0.001 µM	0.00973 µM	< 0.001 µM	0.00892 µM and 0.0583 µM	0.00355 µM	< 0.001 µM	–	–	–	–
COc1ccc(-c2nc(N3CCN(C(=O)C4CCCCC4)CC3)c3c4c(sc3n2)CCCC4)cc1	> 100 µM	81.3 µM	> 100	53.4 µM	> 100 µM	> 100 µM	> 100 µM	> 100 µM	> 100 µM	> 100 µM	> 100 µM	14.2 µM	> 100 µM	> 100 µM	> 100 µM	> 100 µM	21.3 µM	95.4 µM	63.1 µM	89 µM
COC(=O)/C=C/c1cn(C(C)=O)c2ccc(Br)cc12	> 100 µM	45.7 µM	> 100	> 100 µM	> 77.9 µM	> 100 µM	48.5 µM	> 100 µM	> 100 µM	> 23 µM	35.6 µM	20.9 µM	27.4 µM	17.9 µM	34.6 µM	0.967 µM	26.9 µM	8.73 µM	27.9 µM	26.4 µM
O=C(NCc1ccco1)c1ccc(NC2=C(Cl)C(=O)N(Cc3ccccc3)C2=O)cc1	> 100 µM	62.5 µM	38	> 100 µM	> 100 µM	> 100 µM	57.7 µM	27.5 µM	54.1 µM	49.7 µM	51.7 µM	29.6 µM	14.7 µM	> 100 µM	26.7 µM	21.2 µM	40.1 µM	22.2 µM	13.8 µM	17.8 µM
COc1ccc(-c2c(-c3cc(OC)c(OC)c(OC)c3)noc2N)cc1	> 100 µM	4.37 µM	10.4	19.8 µM	> 100 µM	> 33.8 µM	> 100 µM	30 µM	16.3 µM	> 100 µM	< 0.01 µM	< 0.01 µM	0.0312 µM	< 0.0141 µM	< 0.015 µM	< 0.01 µM	< 0.01 µM	–	0.0198 µM	< 0.0181 µM
COc1cc(-c2ncn(/C=C\C(=O)OC(C)C)n2)cc(C(F)(F)F)c1	6.58 µM and 5.38 µM	0.673 µM and 0.0916 µM	–	0.0824 µM and 0.0725 µM	0.39 µM and 0.524 µM	11.1 µM and 1.4 µM	4.18 µM and 11.7 µM	14.1 µM and 12.1 µM	8 µM and 3.58 µM	10.2 µM and 16.2 µM	0.0368 µM and 0.0441 µM	0.0364 µM and < 0.0144 µM	0.0302 µM and 0.0282 µM	0.0271 µM and 0.0287 µM	0.0293 µM and 0.0327 µM	0.051 µM and 0.0608 µM	< 0.0139 µM and 0.0146 µM	0.0569 µM and 0.0489 µM	0.0663 µM and 0.103 µM	0.0493 µM and 0.0487 µM
COc1ccc(-c2cc(-c3ccc(O)cc3)nc3n[nH]c(N)c23)cc1	38.1 µM	36.6 µM	> 100	92.5 µM	36.4 µM	58.2 µM	28.2 µM	68.3 µM	56.2 µM	> 100 µM	15.6 µM	16.8 µM	26.9 µM	17 µM	21.6 µM	35.3 µM	29 µM	10.4 µM	26.5 µM	19.6 µM
N#CS.N=C=S.N=C=S.[Cu+2].[NH2-].[NH2-].[NH2-].[NH2-].c1ccc2ncccc2c1	> 100 µM	51 µM	> 100	44 µM	> 100 µM	48.7 µM	> 100 µM	> 100 µM	> 100 µM	> 100 µM	> 100 µM	28.4 µM	> 100 µM	43.3 µM	22.6 µM	> 100 µM	25.5 µM	60.7 µM	> 100 µM	49.7 µM
CCCCCCc1nc2nc(Cl)c(Cl)nc2[nH]1	> 100 µM	> 100 µM	> 100	> 100 µM	> 100 µM	> 100 µM	> 100 µM	> 100 µM	> 100 µM	> 100 µM	> 100 µM	3.81 µM	5.21 µM	6.24 µM	5.59 µM	5.29 µM	7.55 µM	4.88 µM	3.68 µM	> 100 µM
COc1cccc2c1c(C1=C(c3cn(C)c4ccccc34)C(=O)NC1=O)cn2C	> 25 µM	> 25 µM	> 25	> 25 µM	> 25 µM	> 25 µM	> 25 µM	> 25 µM	> 25 µM	> 25 µM	> 25 µM	> 25 µM	> 25 µM	> 25 µM	> 25 µM	> 23.9 µM	> 25 µM	> 25 µM	> 25 µM	> 25 µM
O=C(CCC(C(=O)c1ccccc1)c1ccccc1)c1ccccc1 (centres undefined)	> 100 µM	58.1 µM	> 100	> 100 µM	> 100 µM	> 100 µM	> 100 µM	> 100 µM	> 100 µM	> 100 µM	3.75 µM	1.44 µM	5.75 µM	20.7 µM	6.5 µM	3.75 µM	11.8 µM	7.28 µM	10.8 µM	35.6 µM
O=S(O)CCCSSc1ccccc1	> 100 µM	> 100 µM	70.2	> 100 µM	> 100 µM	> 100 µM	> 100 µM	> 100 µM	> 100 µM	> 100 µM	–	–	–	–	–	–	–	–	–	–
CCCCCCCCCCCCCCCCOP(=O)(O)OP(=O)(O)OCC1OC(n2ccc(N)nc2=O)C(O)C1O (centres undefined)	> 100 µM	> 100 µM	> 100	> 100 µM	> 100 µM	> 100 µM	> 100 µM	> 100 µM	> 100 µM	> 100 µM	–	> 100 µM	–	> 100 µM and 28.3 µM	–	> 100 µM and 41.8 µM	–	> 100 µM and 21.8 µM	> 100 µM and 38 µM	–
O=C(Nc1nc2ccc(F)cc2s1)c1cccnc1Nc1ccc(Cl)cc1	> 100 µM	5.46 µM	> 27	> 100 µM	> 28.8 µM	> 100 µM	> 21.5 µM	8.38 µM	> 100 µM	> 100 µM	3.04 µM	1.8 µM	2.47 µM	2.66 µM	2.22 µM	0.961 µM	33.6 µM	2.36 µM	1.67 µM	3.68 µM
O=c1c2c3c(sc2nc(N/N=C/c2ccc(Br)cc2)n1Cc1ccccc1)CCCC3	> 100 µM	> 100 µM	> 100	> 100 µM	> 100 µM	> 100 µM	> 100 µM	> 100 µM	> 100 µM	> 100 µM	46.2 µM	> 100 µM	3.81 µM	19.3 µM	10.2 µM	4.1 µM	5.98 µM	86.6 µM	> 100 µM	14.1 µM
CCCCCCCCCCCCOC1C(C(CC(=O)N2CCN(c3cccc(C(F)(F)F)c3)CC2)NS(=O)(=O)c2cc(Cl)cc(Cl)c2)OC2OC(C)(C)OC21 (centres undefined)	> 100 µM	> 100 µM	> 100	> 100 µM	> 100 µM	> 100 µM	> 100 µM	> 100 µM	> 100 µM	> 100 µM	> 100 µM	> 100 µM	> 100 µM	> 100 µM	> 100 µM	> 100 µM	> 100 µM	> 100 µM	> 100 µM	> 100 µM
O=C(NCc1ccncc1)C12CC3CC(C1)CC(c1ccc(Cl)cc1)(C3)C2	28.5 µM	20.8 µM	27.2	23.6 µM	30.1 µM	28.6 µM	22 µM	32.7 µM	29.5 µM	34.9 µM	13.7 µM	7.85 µM	8.15 µM	15 µM	14.8 µM	6.93 µM	10.7 µM	10.2 µM	14.4 µM	13.7 µM
CN(C)CCCNC(=O)c1cncnc1Nc1ccc(OCc2cccc(F)c2)c(Cl)c1	3.32 µM	2.93 µM	3.4	2.87 µM	2.81 µM	3.13 µM	2.77 µM	3.28 µM	3.34 µM	3.73 µM	1.85 µM	1.56 µM	1.67 µM	1.44 µM	1.71 µM	1.74 µM	1.51 µM	1.46 µM	1.74 µM	1.81 µM
